Key:
Test in all cases: relative viability (nuclei count vs DMSO), 5 days (fraction); higher = more cells survive
[1] = compound: CC[C@H](CO)Nc1nc(NCc2ccccc2)c2ncn(C(C)C)c2n1 [Seliciclib] + CC(C)C[C@H](NC(=O)[C@H](Cc1ccccc1)NC(=O)c1cnccn1)B(O)O [Bortezomib] (partner 0.002 µM)
Procedure, shortened: (§1)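 Medians of duplicate plates are given as relative viability. That measure is the nuclei count in treated wells divided by the count in vehicle wells. Counts were taken on 4× images of lung cancer cell lines in 1536-well plates, 5 days after pin-tool dosing the day after seeding with one drug alone or a fixed anchor-drug dose plus five library-drug doses (not always all listed) in √10 steps.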

[2] = compound: CC[C@H](CO)Nc1nc(NCc2ccccc2)c2ncn(C(C)C)c2n1 [Seliciclib] + CS(=O)(=O)CCNCc1ccc(-c2ccc3ncnc(Nc4ccc(OCc5cccc(F)c5)c(Cl)c4)c3c2)o1 [Lapatinib] (partner 2 µM)
Procedure, shortened: as §1

[3] = compound: CC[C@H](CO)Nc1nc(NCc2ccccc2)c2ncn(C(C)C)c2n1 [Seliciclib] + NC(=O)Nc1cc(-c2cccc(F)c2)sc1C(=O)N[C@H]1CCCNC1 [AZD7762] (partner 0.2 µM)
Procedure, shortened: as §1

[4] = compound: CC[C@H](CO)Nc1nc(NCc2ccccc2)c2ncn(C(C)C)c2n1 [Seliciclib] + Nc1ncn([C@H]2C[C@H](O)[C@@H](CO)O2)c(=O)n1 [Decitabine] (partner 2 µM)
Procedure, shortened: as §1

Cell Line | relative viability ([1]; first compound 0.08 µM) | relative viability ([1]; first compound 0.253 µM) | relative viability ([1]; first compound 0.8 µM) | relative viability ([1]; first compound 2.53 µM) | relative viability ([1]; first compound 8 µM) | relative viability ([2]; first compound 0.08 µM) | relative viability ([2]; first compound 0.253 µM) | relative viability ([2]; first compound 0.8 µM) | relative viability ([2]; first compound 2.53 µM) | relative viability ([2]; first compound 8 µM) | relative viability ([3]; first compound 0.08 µM) | relative viability ([3]; first compound 0.253 µM) | relative viability ([3]; first compound 0.8 µM) | relative viability ([3]; first compound 2.53 µM) | relative viability ([3]; first compound 8 µM) | relative viability ([4]; first compound 0.08 µM) | relative viability ([4]; first compound 0.253 µM) | relative viability ([4]; first compound 0.8 µM) | relative viability ([4]; first compound 2.53 µM) | relative viability ([4]; first compound 8 µM)
H3255 | 0.833 | 0.828 | 0.753 | 0.605 | 0.625 | 0.265 | 0.273 | 0.256 | 0.174 | 0.242 | 0.811 | 0.848 | 0.951 | 0.839 | 0.823 | 0.594 | 0.61 | 0.684 | 0.571 | 0.479
HARA | 1.09 | 1.27 | 1.04 | 1.25 | 1.03 | 0.798 | 0.614 | 0.781 | 0.374 | 0.701 | 0.348 | 0.293 | 0.381 | 0.596 | 0.908 | 0.456 | 0.655 | 0.56 | 0.474 | 0.6
HCC-15 | 1.05 | 1.1 | 0.898 | 0.966 | 0.826 | 0.865 | 0.963 | 0.758 | 0.792 | 0.652 | 1.09 | 1.37 | 1.22 | 1.19 | 1.02 | 0.685 | 0.814 | 0.629 | 0.457 | 0.527
HCC-44 | 0.841 | 0.885 | 0.82 | 0.758 | 0.881 | 0.972 | 1.08 | 0.981 | 0.933 | 0.925 | 1.02 | 1.05 | 1.12 | 1.12 | 0.944 | 0.946 | 0.996 | 0.99 | 0.927 | 0.906
HCC-78 | 0.532 | 0.471 | 0.433 | 0.373 | 0.396 | 0.931 | 1.39 | 0.881 | 0.559 | 0.479 | 0.689 | 0.66 | 0.62 | 0.525 | 0.51 | 0.706 | 0.659 | 0.757 | 0.641 | 0.538
HCC-366 | 0.987 | 1.06 | 1.01 | 1.08 | 0.908 | 1.01 | 1.15 | 0.987 | 1.22 | 0.863 | 0.291 | 0.274 | 0.388 | 0.409 | 0.481 | 0.357 | 0.297 | 0.333 | 0.414 | 0.297
HCC-827 | 1.08 | 1.03 | 1.05 | 1.04 | 0.881 | 0.208 | 0.246 | 0.203 | 0.225 | 0.188 | 0.211 | 0.19 | 0.217 | 0.209 | 0.172 | 0.337 | 0.36 | 0.327 | 0.287 | 0.273
HOP-62 | 0.837 | 0.754 | 0.684 | 0.868 | 0.331 | 0.937 | 0.931 | 1.04 | 1.06 | 0.864 | 0.63 | 0.407 | 0.394 | 0.923 | 0.822 | 0.199 | 0.177 | 0.223 | 0.235 | 0.253

— the supplement of paper PMC10307832
